The conditions of the data set: for aqueous solubility: pH 6.8.

A word on the aqueous solubility: it is the dissolved amount per volume that the medium holds. Lower therefore signals a poorly soluble substance.

SMILES strings stand for the structures. Values after ≈ are worked out from the molar mass of the structure shown.

With `O=C(c1cnc(-c2ccccc2)s1)N1CCOC2(CCCC2)C1`, the MDR1-MDCK efflux ratio is 0.58; the intrinsic clearance, human liver microsomes was 21.4 mL/min/kg; the intrinsic clearance, rat liver microsomes turned out to be 774 mL/min/kg; the aqueous solubility came to 39 µg/mL (≈ 119 µM).
For `Fc1cccc(CCNCc2cc(-c3ccccc3)cn3nnnc23)c1` the same measures were 0.71, 190 mL/min/kg, 1720 mL/min/kg and 13.7 µg/mL (≈ 39.5 µM).
Take `C[n+]1cc2c3c(ccc2c2ccc4cc5c(cc4c21)OCO5)OCO3`: the MDR1-MDCK efflux ratio came to 13.5; the intrinsic clearance, human liver microsomes is 8.23 mL/min/kg; the intrinsic clearance, rat liver microsomes came out at 58.2 mL/min/kg; the aqueous solubility amounted to 32.2 µg/mL.
For `Fc1cccc(Cl)c1CNCCc1c[nH]c2ccccc12`, the MDR1-MDCK efflux ratio turned out to be 0.457; the intrinsic clearance, human liver microsomes is 298 mL/min/kg; the intrinsic clearance, rat liver microsomes is 2150 mL/min/kg; the aqueous solubility was found to be 48.3 µg/mL (≈ 159 µM).
As to `O=C(CNc1cc(N2CCCC2=O)ccc1F)N1CCCCCC1`, the MDR1-MDCK efflux ratio was found to be 2.68; the intrinsic clearance, human liver microsomes was 23.8 mL/min/kg; the intrinsic clearance, rat liver microsomes came to 393 mL/min/kg.
Turning to `CCc1c(C(=O)NCCc2ccc(N3CCCCC3)cc2)[nH]c2ccc(Cl)cc12`, the MDR1-MDCK efflux ratio came out at 0.577; the intrinsic clearance, human liver microsomes came out at 40.5 mL/min/kg; the intrinsic clearance, rat liver microsomes was 484 mL/min/kg.
`COc1cc(OC)c(OC)cc1CNc1ccc(N2CCOCC2)c(C(=O)O)c1`: the MDR1-MDCK efflux ratio was 28; the intrinsic clearance, human liver microsomes is no more than 4.74 mL/min/kg; the intrinsic clearance, rat liver microsomes is no more than 10.7 mL/min/kg; the aqueous solubility is 29.2 µg/mL (≈ 72.6 µM).
`O=S(=O)(NC[C@H]1CCCN1)c1ccc(OC(F)F)cc1`: the MDR1-MDCK efflux ratio worked out at 2.89; the intrinsic clearance, human liver microsomes was no more than 4.74 mL/min/kg; the intrinsic clearance, rat liver microsomes amounted to 34.5 mL/min/kg.
With `CCc1ncc2c(n1)CN(c1ccnc(-c3ccccc3)n1)CC2`, the MDR1-MDCK efflux ratio was determined as 0.485; the intrinsic clearance, human liver microsomes is 36.1 mL/min/kg; the intrinsic clearance, rat liver microsomes was 259 mL/min/kg; the aqueous solubility amounted to 34.9 µg/mL (≈ 110 µM).
For `N#Cc1ccc(N2CCc3c(ncn3C3CC3)C2)nc1`, in that order: 0.877, 13.4 mL/min/kg, 63.7 mL/min/kg and 45.5 µg/mL (≈ 172 µM).
`COc1ccc(C2=N/C(=C/c3cc4ccccc4n3C(C)=O)C(=O)O2)cc1`: the aqueous solubility amounted to 2.34 µg/mL (≈ 6.49 µM).
`O=C(NC[C@]1(O)CCN(Cc2cscn2)C[C@H]1O)c1c[nH]cn1` gave an intrinsic clearance, human liver microsomes of no more than 4.74 mL/min/kg and an intrinsic clearance, rat liver microsomes of 42.6 mL/min/kg.
For the molecule `Cc1nnc2ncc(-c3cccc(-c4ccnn4C)c3)cn12`, the MDR1-MDCK efflux ratio stood at 0.929; the intrinsic clearance, human liver microsomes is no more than 4.74 mL/min/kg; the intrinsic clearance, rat liver microsomes was found to be 31 mL/min/kg.
Regarding `O=C(NCC(=O)N1CCN(C2CC2)CC1)c1ccccc1`, the MDR1-MDCK efflux ratio was determined as 0.659; the intrinsic clearance, human liver microsomes is no more than 4.74 mL/min/kg; the intrinsic clearance, rat liver microsomes was no more than 10.7 mL/min/kg; the aqueous solubility was 62.3 µg/mL (≈ 217 µM).
The molecule `CCC(Oc1ccccc1)C(=O)Nc1nc2ccccc2[nH]1` (stereo not given) came in with an aqueous solubility of 11.8 µg/mL (≈ 40.1 µM).
Turning to `O=C(c1cccnc1)N1CCCC(c2cccc(-c3cccc(Cl)c3)n2)C1` (stereo not given), the MDR1-MDCK efflux ratio stood at 0.905; the intrinsic clearance, human liver microsomes was found to be 397 mL/min/kg; the intrinsic clearance, rat liver microsomes was 1270 mL/min/kg; the aqueous solubility stood at 36 µg/mL (≈ 95.1 µM).
With `CCOCC(=O)Nc1cccc(CN2CCCC2)c1`, the MDR1-MDCK efflux ratio was 2.31; the intrinsic clearance, human liver microsomes is 15 mL/min/kg; the intrinsic clearance, rat liver microsomes was determined as 501 mL/min/kg.
With `CN(Cc1cnn(C)c1)c1ncnc2c1oc1ccccc12`, the MDR1-MDCK efflux ratio was determined as 0.969; the intrinsic clearance, human liver microsomes was 19.7 mL/min/kg; the intrinsic clearance, rat liver microsomes was determined as 505 mL/min/kg; the aqueous solubility was 42.5 µg/mL (≈ 145 µM).
`CN(C)c1cncc(-c2ccc(S(=O)(=O)N(C)C)cc2)n1`: the MDR1-MDCK efflux ratio came out at 0.61; the intrinsic clearance, human liver microsomes was 80.8 mL/min/kg; the intrinsic clearance, rat liver microsomes worked out at 2430 mL/min/kg.
For the molecule `O=C(NCc1nnc2n1-c1ccccc1CC2)c1ccc2ccccc2c1`, the MDR1-MDCK efflux ratio is 6.88; the intrinsic clearance, human liver microsomes came out at 28.6 mL/min/kg; the intrinsic clearance, rat liver microsomes was found to be 517 mL/min/kg; the aqueous solubility stood at 34.3 µg/mL (≈ 96.9 µM).
Take `CC(=O)c1cc(Br)cc(F)c1OCc1ccccn1`: the MDR1-MDCK efflux ratio was found to be 0.622; the intrinsic clearance, human liver microsomes was determined as 66 mL/min/kg; the intrinsic clearance, rat liver microsomes is 316 mL/min/kg.
`COc1ccccc1CNC(=O)c1cnc(C2CCN(C(=O)C(C)(C)C)CC2)nc1C`: the MDR1-MDCK efflux ratio came out at 9.52; the intrinsic clearance, human liver microsomes turned out to be 218 mL/min/kg; the intrinsic clearance, rat liver microsomes came out at 2960 mL/min/kg; the aqueous solubility was found to be 69.7 µg/mL (≈ 164 µM).
Turning to `Cc1c(C)n(Cc2ccccc2)c2ncnc(N)c12`, the MDR1-MDCK efflux ratio was 0.607; the intrinsic clearance, human liver microsomes stood at 16 mL/min/kg; the intrinsic clearance, rat liver microsomes amounted to 516 mL/min/kg; the aqueous solubility stood at 43.1 µg/mL (≈ 171 µM).
In the case of `Nc1nc(-c2ccccc2)nc2nc(C3CCCN(CC(=O)N4CCCC4)C3)ccc12` (stereo not given), the MDR1-MDCK efflux ratio worked out at 12.5; the intrinsic clearance, human liver microsomes is 5.81 mL/min/kg; the intrinsic clearance, rat liver microsomes stood at 186 mL/min/kg; the aqueous solubility is 68.6 µg/mL (≈ 165 µM).
On to `COc1ncnc2c1CN(Cc1c[nH]nc1-c1ccc(F)cc1)CC2`, for which the MDR1-MDCK efflux ratio turned out to be 7.03; the intrinsic clearance, human liver microsomes is 70.7 mL/min/kg; the intrinsic clearance, rat liver microsomes worked out at 210 mL/min/kg; the aqueous solubility came out at 28.4 µg/mL (≈ 83.5 µM).
Take `C#CCOc1ccc(OC)cc1C(N)=O`: the MDR1-MDCK efflux ratio stood at 0.717; the intrinsic clearance, human liver microsomes was 13.8 mL/min/kg; the intrinsic clearance, rat liver microsomes turned out to be 73.3 mL/min/kg.
Turning to `Cc1cnc(NCc2ccccc2-n2ccnc2)nc1N(C)C`, the MDR1-MDCK efflux ratio was 11.3; the intrinsic clearance, human liver microsomes came out at 33.7 mL/min/kg; the intrinsic clearance, rat liver microsomes amounted to 486 mL/min/kg; the aqueous solubility was 52.2 µg/mL (≈ 169 µM).
Turning to `N#C/C(=C\c1cnn(Cc2ccccc2)c1)c1nc2cc(Cl)ccc2c(=O)[nH]1`, the MDR1-MDCK efflux ratio came to 1.17 and the aqueous solubility is 0.17 µg/mL (≈ 0.438 µM).
Take `N#Cc1ccsc1NC(=O)c1ccccn1`: the aqueous solubility turned out to be 5.91 µg/mL (≈ 25.8 µM).
`Cn1c(=O)oc2cc(NC(C3CC3)C3CC3)ccc21`: the intrinsic clearance, human liver microsomes worked out at 13.6 mL/min/kg and the intrinsic clearance, rat liver microsomes turned out to be 186 mL/min/kg.
`CNCc1cc(NC)nc(C2CCCN2C(=O)C(C)(C)c2ccc(C)cc2)n1` (stereo not given): the MDR1-MDCK efflux ratio came to 36.8; the intrinsic clearance, human liver microsomes came out at 16.2 mL/min/kg; the intrinsic clearance, rat liver microsomes came out at 153 mL/min/kg.
For `O=C(c1ccc2c(c1)CCCC2)N1CCOCC1c1ccn[nH]1` (stereo not given), the MDR1-MDCK efflux ratio was 4.04.
On to `c1ccc(COc2ccc(CNCC3CCNCC3)cc2)cc1`, for which the MDR1-MDCK efflux ratio was found to be 4.9; the intrinsic clearance, human liver microsomes was no more than 4.74 mL/min/kg; the intrinsic clearance, rat liver microsomes turned out to be 21.1 mL/min/kg; the aqueous solubility turned out to be 25.2 µg/mL (≈ 81.2 µM).
Regarding `CC(C)c1cc(C(C)C)c(CC(=O)NS(=O)(=O)Oc2c(C(C)C)cccc2C(C)C)c(C(C)C)c1`, the MDR1-MDCK efflux ratio was 4.45; the intrinsic clearance, human liver microsomes stood at 45.9 mL/min/kg; the intrinsic clearance, rat liver microsomes was 170 mL/min/kg.
Regarding `Cc1ccn(-c2ccc(NCC3CC3)nn2)n1`, the intrinsic clearance, human liver microsomes amounted to 11 mL/min/kg and the intrinsic clearance, rat liver microsomes was determined as 305 mL/min/kg.
On to `CCc1cc(CNC(=O)Nc2ccc(N3CCSCC3)cc2)on1`, for which the MDR1-MDCK efflux ratio is 19.2; the intrinsic clearance, human liver microsomes is 35.9 mL/min/kg; the intrinsic clearance, rat liver microsomes was 1430 mL/min/kg.
Consider `C=CC(=O)Nc1cccc(Oc2nc(Nc3ccc(N4CCN(C)CC4)cc3)nc3ccoc23)c1`, for which the MDR1-MDCK efflux ratio was 22; the fraction unbound, human plasma was 0.014; the fraction unbound, rat plasma stood at 0.00619; the intrinsic clearance, human liver microsomes was determined as 16.2 mL/min/kg. Further, the intrinsic clearance, rat liver microsomes stood at 329 mL/min/kg and the aqueous solubility is 28.6 µg/mL (≈ 60.8 µM).
In the case of `CNc1ccc(/C=C/C=C/c2nc3ccc(O)cc3s2)cn1`, the aqueous solubility was 0.22 µg/mL (≈ 0.711 µM).
With `CCOc1cc2c(cc1CCC(=O)N1CCC(Cc3ncncc3C(N)=O)CC1)CCC2`, the intrinsic clearance, human liver microsomes is 564 mL/min/kg; the intrinsic clearance, rat liver microsomes worked out at 1650 mL/min/kg; the aqueous solubility turned out to be 75.2 µg/mL (≈ 172 µM).
`O=C(Nc1nc2ccccc2[nH]1)C1CCCO1` (stereo not given) had an aqueous solubility of 35.5 µg/mL (≈ 154 µM).
`Nc1cnn(CC(=O)Nc2ccc(F)cc2)c1` returned an intrinsic clearance, human liver microsomes of 16.1 mL/min/kg; an intrinsic clearance, rat liver microsomes of 62.4 mL/min/kg; an aqueous solubility of 54 µg/mL (≈ 231 µM).
In the case of `CCc1cc(-c2ccc(OC)c3ncccc23)nc(N2CCOCC2)n1`, the MDR1-MDCK efflux ratio came to 0.848; the intrinsic clearance, human liver microsomes came to 28.6 mL/min/kg; the intrinsic clearance, rat liver microsomes is 95.3 mL/min/kg.
As for `COc1cccc(OCCCn2cncc2-c2cc3c(cc2C)n(C)c(=O)n3C)c1`, the MDR1-MDCK efflux ratio amounted to 143; the intrinsic clearance, human liver microsomes came out at 38.4 mL/min/kg; the intrinsic clearance, rat liver microsomes was determined as 352 mL/min/kg; the aqueous solubility was found to be 55.4 µg/mL (≈ 136 µM).
For `O=C1Oc2nc3cc4c(cc3cc2CN1CCN1CCOCC1)OCCO4`, in that order: 3.87, no more than 4.74 mL/min/kg, no more than 10.7 mL/min/kg and 80.5 µg/mL (≈ 217 µM).
Take `COc1ccc(-c2noc([C@@H]3CCCN3Cc3ccccc3)n2)cn1`: the MDR1-MDCK efflux ratio came out at 0.592; the intrinsic clearance, human liver microsomes is 89.6 mL/min/kg; the intrinsic clearance, rat liver microsomes stood at 1150 mL/min/kg; the aqueous solubility turned out to be 25.5 µg/mL (≈ 75.8 µM).
As to `COc1ccc(Nc2nc(Cl)cc(Cl)n2)cc1`, the intrinsic clearance, human liver microsomes was determined as 188 mL/min/kg and the intrinsic clearance, rat liver microsomes came to 170 mL/min/kg.
Consider `COc1ccc(CN2CCN(c3cc(C)nc(N)n3)CC2)cc1OC`, for which the MDR1-MDCK efflux ratio is 5.7; the intrinsic clearance, human liver microsomes was no more than 4.74 mL/min/kg; the intrinsic clearance, rat liver microsomes was no more than 10.7 mL/min/kg; the aqueous solubility turned out to be 53.6 µg/mL (≈ 156 µM).
`NC(CO)(CO)CCc1ccc(Sc2cccc(OCc3ccccc3)c2)cc1Cl` had an intrinsic clearance, human liver microsomes of 6.33 mL/min/kg and an intrinsic clearance, rat liver microsomes of 14.2 mL/min/kg.

(Values after the Biogen ADME set (Fang et al. 2023).)
